In patent US20250129430A1, “HIGH ATP-AFFINITY PROTEIN AS THERAPEUTIC TARGET FOR INTRACTABLE CANCER MOLECULAR SUBTYPES AND INHIBITOR THEREOF” (VeraVerse Co., Ltd., priority 2021, published 2025):

Experiments:
Assay type in all cases: cell-based, human
[1] = test system: FU97; assay: Cell viability drug screen, 12-point dose-response AUC; design: Average Area Under the Viability Curve (AUC), AUC norm value: scale not given here; details: for Average Area Under the Viability Curve (AUC), AUC norm value: FU97 cells, 72 hours
Outline: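 Trapezoidal AUC of a 12-point, DMSO-normalized dose-response curve. Luminescent viability was measured after 72 h of exposure at 37° C to half-log serial dilutions (0.5% DMSO control), dosed 24 h after plating FU97 cells at 5×10^3 per well.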

[2] = test system: non-SEM-type gastric cancer cell line; assay: Cell viability drug screen, AUC summary over non-SEM-type lines; details: in the non-SEM-type gastric cancer cell line
[3] = test system: SNU1967; assay: Cell viability drug screen, 12-point dose-response AUC; details: for Average Area Under the Viability Curve (AUC), AUC norm value: SNU1967 cells, 72 hours
Outline: (§1)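 Dose-response AUC reflects 72 h drug exposure of gastric cancer cells in a 12-point, half-log format, with viability read by luminescence and normalized to DMSO (0.5%).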

[4] = test system: SNU668; assay: as above; details: for Average Area Under the Viability Curve (AUC), AUC norm value: SNU668 cells (SEM subtype), 72 hours
Outline: as §1

[5] = test system: NCI_N87; assay: as above; details: for Average Area Under the Viability Curve (AUC), AUC norm value: NCI_N87 cells, 72 hours
Outline: as §1

[6] = test system: SNU601; assay: as above; details: for Average Area Under the Viability Curve (AUC), AUC norm value: SNU601 cells, 72 hours
Outline: as §1

[7] = test system: SNU16; assay: as above; details: for Average Area Under the Viability Curve (AUC), AUC norm value: SNU16 cells, 72 hours
Outline: as §1

[8] = test system: SK4; assay: as above; details: for Average Area Under the Viability Curve (AUC), AUC norm value: SK4 cells (SEM subtype), 72 hours
Outline: as §1

[9] = test system: NCC59; assay: as above; details: for Average Area Under the Viability Curve (AUC), AUC norm value: NCC59 cells, 72 hours
Outline: as §1

[10] = test system: SNU620; assay: as above; details: for Average Area Under the Viability Curve (AUC), AUC norm value: SNU620 cells, 72 hours
Outline: as §1

[11] = test system: SNU1750; assay: as above; details: for Average Area Under the Viability Curve (AUC), AUC norm value: SNU1750 cells (SEM subtype), 72 hours
Outline: as §1

[12] = test system: MKN45; assay: as above; details: for Average Area Under the Viability Curve (AUC), AUC norm value: MKN45 cells (non-SEM subtype), 72 hours
Outline: (§2)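 Viability: luminescence (Glo kit, 15 min RT), normalized to 0.5% DMSO vehicle. Dosing: half-log, 12 concentrations, 72 h. Cells: 5×10^3/well, treated 24 h after plating. Value: trapezoidal AUC, mean of repeats.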

[13] = test system: KATO3; assay: as above; details: for Average Area Under the Viability Curve (AUC), AUC norm value: KATO3 cells, 72 hours
Outline: as §1

[14] = test system: NCC20; assay: as above; details: for Average Area Under the Viability Curve (AUC), AUC norm value: NCC20 cells, 72 hours
Outline: as §1

[15] = test system: NCC24; assay: as above; details: for Average Area Under the Viability Curve (AUC), AUC norm value: NCC24 cells, 72 hours
Outline: as §1

[16] = test system: YCC2; assay: as above; details: for Average Area Under the Viability Curve (AUC), AUC norm value: YCC2 cells, 72 hours
Outline: as §1

[17] = test system: Hs746T; assay: as above; details: for Average Area Under the Viability Curve (AUC), AUC norm value: Hs746T cells (SEM subtype), 72 hours
Outline: as §1

[18] = test system: SNU216; assay: as above; details: for Average Area Under the Viability Curve (AUC), AUC norm value: SNU216 cells (non-SEM subtype), 72 hours
Outline: as §2

[19] = test system: OCUM1; assay: as above; details: for Average Area Under the Viability Curve (AUC), AUC norm value: OCUM1 cells, 72 hours
Outline: as §1

[20] = test system: AGS; assay: as above; details: for Average Area Under the Viability Curve (AUC), AUC norm value: AGS cells (non-SEM subtype), 72 hours
Outline: as §2

[21] = test system: MKN1; assay: as above; details: for Average Area Under the Viability Curve (AUC), AUC norm value: MKN1 cells, 72 hours
Outline: as §1

[22] = test system: MKN74; assay: as above; details: for Average Area Under the Viability Curve (AUC), AUC norm value: MKN74 cells, 72 hours
Outline: as §2

[23] = test system: YCC3; assay: as above; details: for Average Area Under the Viability Curve (AUC), AUC norm value: YCC3 cells, 72 hours
Outline: as §1

[24] = test system: YCC11; assay: as above; details: for Average Area Under the Viability Curve (AUC), AUC norm value: YCC11 cells (SEM subtype), 72 hours
Outline: as §1

[25] = test system: NCC19; assay: as above; details: for Average Area Under the Viability Curve (AUC), AUC norm value: NCC19 cells, 72 hours
Outline: as §1

[26] = test system: SNU484; assay: as above; details: for Average Area Under the Viability Curve (AUC), AUC norm value: SNU484 cells (SEM subtype), 72 hours
Outline: as §1

[27] = test system: SNU638; assay: as above; details: for Average Area Under the Viability Curve (AUC), AUC norm value: SNU638 cells, 72 hours
Outline: as §1

[28] = test system: SNU1; assay: as above; details: for Average Area Under the Viability Curve (AUC), AUC norm value: SNU1 cells, 72 hours
Outline: as §1

[29] = test system: SNU719; assay: as above; details: for Average Area Under the Viability Curve (AUC), AUC norm value: SNU719 cells, 72 hours
Outline: as §2

[30] = test system: MKN28; assay: as above; details: for Average Area Under the Viability Curve (AUC), AUC norm value: MKN28 cells, 72 hours
Outline: as §1

## Cc1ccc([N+](=O)[O-])cc1S(=O)(=O)N(C)/N=C/c1cnc2ccc(Br)cn12 [PIK-75]
[1]
  Average Area Under the Viability Curve (AUC), AUC norm value: −0.5267
[2]
  AUC value: high
[3]
  Average Area Under the Viability Curve (AUC), AUC norm value: −0.3048
[4]
  Average Area Under the Viability Curve (AUC), AUC norm value: −0.428
[5]
  Average Area Under the Viability Curve (AUC), AUC norm value: −0.1238
[6]
  Average Area Under the Viability Curve (AUC), AUC norm value: 1.999
[7]
  Average Area Under the Viability Curve (AUC), AUC norm value: −1.485
[8]
  Average Area Under the Viability Curve (AUC), AUC norm value: −1.009
[9]
  Average Area Under the Viability Curve (AUC), AUC norm value: −0.1565
[10]
  Average Area Under the Viability Curve (AUC), AUC norm value: 0.7882
[11]
  Average Area Under the Viability Curve (AUC), AUC norm value: 0
[12]
  Average Area Under the Viability Curve (AUC), AUC norm value: 1.17
[13]
  Average Area Under the Viability Curve (AUC), AUC norm value: 3.793
[14]
  Average Area Under the Viability Curve (AUC), AUC norm value: −0.4913
[15]
  Average Area Under the Viability Curve (AUC), AUC norm value: −0.07825
[16]
  Average Area Under the Viability Curve (AUC), AUC norm value: 1.289
[17]
  Average Area Under the Viability Curve (AUC), AUC norm value: 0.1171
[18]
  Average Area Under the Viability Curve (AUC), AUC norm value: 0.8132
[19]
  Average Area Under the Viability Curve (AUC), AUC norm value: 0.5105
[20]
  Average Area Under the Viability Curve (AUC), AUC norm value: −1.2576
[21]
  Average Area Under the Viability Curve (AUC), AUC norm value: −0.03458
[22]
  Average Area Under the Viability Curve (AUC), AUC norm value: 0.2052
[23]
  Average Area Under the Viability Curve (AUC), AUC norm value: 1.723
[24]
  Average Area Under the Viability Curve (AUC), AUC norm value: −0.5398
[25]
  Average Area Under the Viability Curve (AUC), AUC norm value: 0.3535
[26]
  Average Area Under the Viability Curve (AUC), AUC norm value: −0.9469
[27]
  Average Area Under the Viability Curve (AUC), AUC norm value: 1.312
[28]
  Average Area Under the Viability Curve (AUC), AUC norm value: −0.3397
[29]
  Average Area Under the Viability Curve (AUC), AUC norm value: 5.726
[30]
  Average Area Under the Viability Curve (AUC), AUC norm value: 0.05865

## [O-][n+]1ccccc1[S-].[O-][n+]1ccccc1[S-].[Zn+2] [PYRITHIONE ZINC, Pyrithione zinc]
[1]
  area under the viability curve (AUC), normalized: 0.3344
[2]
  AUC value: high
[3]
  area under the viability curve (AUC), normalized: −0.5027
[4]
  area under the viability curve (AUC), normalized: 0.7681
[5]
  area under the viability curve (AUC), normalized: 1.161
[6]
  area under the viability curve (AUC), normalized: 2.666
[7]
  area under the viability curve (AUC), normalized: 1.28
[8]
  area under the viability curve (AUC), normalized: 0
[9]
  area under the viability curve (AUC), normalized: 0.7288
[10]
  area under the viability curve (AUC), normalized: −0.7817
[11]
  area under the viability curve (AUC), normalized: 0.1011
[12]
  area under the viability curve (AUC), normalized: −1.0871
[13]
  area under the viability curve (AUC), normalized: 0.8219
[14]
  area under the viability curve (AUC), normalized: −0.7838
[15]
  area under the viability curve (AUC), normalized: −0.309
[16]
  area under the viability curve (AUC), normalized: −0.08387
[17]
  area under the viability curve (AUC), normalized: −0.541
[18]
  area under the viability curve (AUC), normalized: −0.2272
[19]
  area under the viability curve (AUC), normalized: 0.5355
[20]
  area under the viability curve (AUC), normalized: −0.9355
[21]
  area under the viability curve (AUC), normalized: −0.4913
[22]
  area under the viability curve (AUC), normalized: −1.149
[23]
  area under the viability curve (AUC), normalized: 0.6512
[24]
  area under the viability curve (AUC), normalized: −1.337
[25]
  area under the viability curve (AUC), normalized: 0.7336
[26]
  area under the viability curve (AUC), normalized: −0.9287
[27]
  area under the viability curve (AUC), normalized: −0.08685
[28]
  area under the viability curve (AUC), normalized: 1.431
[29]
  area under the viability curve (AUC), normalized: 1.547
[30]
  area under the viability curve (AUC), normalized: 0.1421

## CCCCCCCCCCCCCCCC[N+](C)(C)CCN(Cc1ccc(OC)cc1)c1ncccn1 [Thonzonium Bromide]
[1]
  Average Area Under the Viability Curve (AUC), AUC norm value: −0.03008
[2]
  AUC value: high
[3]
  Average Area Under the Viability Curve (AUC), AUC norm value: 0.01501
[4]
  Average Area Under the Viability Curve (AUC), AUC norm value: 0.3151
[5]
  Average Area Under the Viability Curve (AUC), AUC norm value: 0.415
[6]
  Average Area Under the Viability Curve (AUC), AUC norm value: 2.228
[7]
  Average Area Under the Viability Curve (AUC), AUC norm value: −0.9128
[8]
  Average Area Under the Viability Curve (AUC), AUC norm value: −1.033
[9]
  Average Area Under the Viability Curve (AUC), AUC norm value: 0.6096
[10]
  Average Area Under the Viability Curve (AUC), AUC norm value: −0.2404
[11]
  Average Area Under the Viability Curve (AUC), AUC norm value: 0.06729
[12]
  Average Area Under the Viability Curve (AUC), AUC norm value: 0.1213
[13]
  Average Area Under the Viability Curve (AUC), AUC norm value: −0.127
[14]
  Average Area Under the Viability Curve (AUC), AUC norm value: −0.6042
[15]
  Average Area Under the Viability Curve (AUC), AUC norm value: −0.2465
[16]
  Average Area Under the Viability Curve (AUC), AUC norm value: −0.4255
[17]
  Average Area Under the Viability Curve (AUC), AUC norm value: 0
[18]
  Average Area Under the Viability Curve (AUC), AUC norm value: 0.2737
[19]
  Average Area Under the Viability Curve (AUC), AUC norm value: 0.2209
[20]
  Average Area Under the Viability Curve (AUC), AUC norm value: −0.4105
[21]
  Average Area Under the Viability Curve (AUC), AUC norm value: −0.2414
[22]
  Average Area Under the Viability Curve (AUC), AUC norm value: −0.9967
[23]
  Average Area Under the Viability Curve (AUC), AUC norm value: 0.6163
[24]
  Average Area Under the Viability Curve (AUC), AUC norm value: −0.8304
[25]
  Average Area Under the Viability Curve (AUC), AUC norm value: 0.2995
[26]
  Average Area Under the Viability Curve (AUC), AUC norm value: −0.9082
[27]
  Average Area Under the Viability Curve (AUC), AUC norm value: −0.4973
[28]
  Average Area Under the Viability Curve (AUC), AUC norm value: 1.478
[29]
  Average Area Under the Viability Curve (AUC), AUC norm value: 1.9
[30]
  Average Area Under the Viability Curve (AUC), AUC norm value: 0.07021
